Data on one molecule can be found in patent US20050228180A1, “Alpha, omega-dicarboximide derivatives as useful uro-selective a1a adrenoceptor blockers” (priority 2002, published 2005).

For orientation: Ki means a measure of affinity in units of concentration, obtained from inhibition or displacement.

Where a name gives a salt, the structure may show the parent alone.

One assay has as its target T1, α1A adrenoceptor (Rattus norvegicus, UniProt P43140).
T1 construct: from tissue; host or cells: rat submaxillary gland membranes
T1 sequence (P43140 1-466): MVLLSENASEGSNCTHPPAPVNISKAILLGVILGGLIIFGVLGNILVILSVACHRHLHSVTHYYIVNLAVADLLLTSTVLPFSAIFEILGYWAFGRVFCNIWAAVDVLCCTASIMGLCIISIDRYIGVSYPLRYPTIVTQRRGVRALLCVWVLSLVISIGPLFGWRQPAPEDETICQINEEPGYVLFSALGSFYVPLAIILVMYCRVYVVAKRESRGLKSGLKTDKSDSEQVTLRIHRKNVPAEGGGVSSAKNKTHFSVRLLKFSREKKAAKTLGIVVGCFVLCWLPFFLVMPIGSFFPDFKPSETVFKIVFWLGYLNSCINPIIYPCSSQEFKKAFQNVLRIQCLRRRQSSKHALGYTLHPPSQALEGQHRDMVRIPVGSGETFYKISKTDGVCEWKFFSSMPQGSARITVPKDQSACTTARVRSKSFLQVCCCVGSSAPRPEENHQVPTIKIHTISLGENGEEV
The assay can be described thus: Radioligand binding, [3H] prazosin displacement, rat submaxillary membranes. A digest of the protocol: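 Displacement of [3H]prazosin measured by filtration and counting, with Ki from IC50 via Cheng–Prusoff and nonspecific binding set by 300 nM prazosin. Native rat submaxillary (α1A) or liver (α1B) membranes, 150-250 μg protein, 1 h at 24-25° C in Tris/EDTA pH 7.4.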

Assay [1] concerns the target T2, α1B adrenoceptor (spleen) (Rattus norvegicus, UniProt P15823).
T2 construct: Isolated tissues were mounted in organ bath containing Krebs Henseleit buffer; from tissue; host or cells: isolated rat spleen
T2 sequence (P15823 1-515): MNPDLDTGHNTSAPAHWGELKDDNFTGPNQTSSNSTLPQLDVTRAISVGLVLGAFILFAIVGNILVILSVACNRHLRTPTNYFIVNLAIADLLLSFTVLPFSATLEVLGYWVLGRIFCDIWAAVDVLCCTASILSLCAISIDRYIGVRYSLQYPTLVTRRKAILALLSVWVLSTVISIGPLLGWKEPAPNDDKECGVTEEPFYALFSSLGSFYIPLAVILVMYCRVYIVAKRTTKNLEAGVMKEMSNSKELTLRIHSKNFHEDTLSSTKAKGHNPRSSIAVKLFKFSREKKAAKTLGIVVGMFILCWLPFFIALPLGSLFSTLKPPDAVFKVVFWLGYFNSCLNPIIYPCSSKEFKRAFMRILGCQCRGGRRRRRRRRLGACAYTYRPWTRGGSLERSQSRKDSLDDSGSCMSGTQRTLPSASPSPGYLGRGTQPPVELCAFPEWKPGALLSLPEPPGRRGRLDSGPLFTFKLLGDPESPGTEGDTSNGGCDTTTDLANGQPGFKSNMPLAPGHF
As to the kind of experiment: In vitro functional assay, isolated spleen, phenylepinephrine contraction. The following applies: read-out: α Adrenoceptor Subtype (pKB) α1B (converted). Format: cell-based. A digest of the protocol: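 Rat aorta, spleen and prostate strips from urethane-anaesthetised male Wistar rats in Krebs-Henseleit at 37 °C (95% O2/5% CO2), 2 g or 1 g resting tension, 2 h equilibration. Norepinephrine (aorta) or phenylephrine (spleen, prostate) contraction curves run without and with compound at […]; antagonist affinity given as pKB.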

Take `CC(C)Oc1ccccc1N1CCN(CCCN2C(=O)C3CC(O)C(O)CC3C2=O)CC1` (stereo not drawn) [Compound No. 23, 2-[3-{4-(2-Isopropoxyphenyl)piperazin-1-yl}propyl]-5,6-dihydroxy-3a,4,5,6,7,7a, hexahydro-1H-isoindole-1,3(2H)-dione-hydrochloride]: the Ki on α1A adrenoceptor ([3H] prazosin displacement, rat submaxillary membranes, read-out: Affinity (Ki) α1A (Rat Submaxillary)) worked out at 0.98 nM. For the same molecule, at α1A adrenoceptor (ratio of binding affinities, rat liver / rat submaxillary), the α1B/α1A is 130. Further, the Kb in assay [1] is 7.41 nM.
